Legend:
skin hair follicles = assay: Regeneration level of skin hair follicles in mice, intradermal injection, histological staining; assay type: in vivo; conditions: 12-month-old mice, 4 weeks after injection, vs PBS group
Experimental: The skin on the back of posterior limbs of 12-month-old aged mice was taken, and the treatment group was intradermally injected with PBS-diluted α-KG (1 μl of dimethyl-α-KG dissolved in 4 μl of PBS). A sham operation was performed and PBS was injected as a control. Histological staining was performed to observe the changes of skin hair follicles at 4 weeks after injection.

NF-κB signaling pathway = assay: Activation of NF-κB signaling pathway in IL-1β-stimulated chondrocytes (whole-genome sequencing, nuclear P65 western blot); assay type: cell-based, mouse
Experimental: Mouse chondrocytes were obtained from 7-day-old C57BL/6 mice (Shanghai Slac laboratory animal Co., Ltd.), and the procedure was as follows: under aseptic surgical conditions, bilateral knee cartilages of C57 mice were carefully stripped and digested with 0.2% neutral collagenase (Serva, Germany) for 8 h; cell precipitates were obtained by centrifugation, and the cells were resuspended in modified Eagle medium (DMEM) (Gibco, USA) containing 10% FBS, inoculated in culture dishes, and cultured with high-sugar DMEM medium (containing 10% FBS, 100 U/mL penicillin and 100 mg/L streptomycin) at 37° C. in a 5% CO2 constant temperature incubator. The medium was changed for the first time at 48 h. […] The cells were collected by centrifugation and resuspended, and the concentration was adjusted for inoculation in culture dishes. The cells were subcultured by the above method, and the obtained cells were labeled as P1, P2, P3 generations, etc. P1 generation mouse chondrocytes cultured in Embodiment 1 were subjected to western blot analysis through operations including the following: • 1. Collecting of protein samples: The culture medium was sucked out, and the cells were washed twice with PBS at 4° C. and then dried. […] The protein concentration was determined by the BCA Protein Quantification Kit. […]

## COC(=O)CCC(=O)C(=O)OC [α-KG, dimethyl-α-ketoglutarate]
Skin hair follicles
  number of skin hair follicles: significantly increased
NF-κB signaling pathway; western blot, IL-1β 0 min, 15 min, 30 min, 60 min, 7 mM α-KG
  expression of P65 in the NF-κB signaling pathway in the nucleus: significantly inhibited
NF-κB signaling pathway; whole-genome sequencing, IL-1β stimulation, α-KG complemented
  expression of many genes in the NF-κB signaling pathway: suppressed

— patent US20240033237A1, “USE OF A-KETOGLUTARATE IN MANUFACTURE OF MEDICAMENT” (TONGJI UNIVERSITY, priority 2019, published 2024)
